Test results reported in patent US9573911B2, “Diphosphate mimetics and uses thereof” (President and Fellows of Harvard College, priority 2011, dated 2017).
Like-named read-outs stand apart in the source and are kept apart here.

What was measured:
Assay type in all cases: biochemical
CDK2/cyclin A = biological target: T1, CDK2/cyclin A (Homo sapiens, UniProt P24941); assay: Further kinase screen, Invitrogen Z'-LYTE; conditions: Table 3
T1 construct: purchased Invitrogen
Description: (§1) Kinase profiling was conducted using Invitrogen Z'-LYTE screening protocol and assay conditions found at www.invitrogen.com. Compound (2) inhibited PLK1 completely at 5 μM.
(§2) A further kinase screen was performed on Compounds (2), (4A), and (4B) using the assay described above.

RPS6KB1 (p70S6K) = biological target: T2, RPS6KB1 (p70S6K) (Homo sapiens, UniProt P23443); assay: Further kinase screen, Invitrogen Z'-LYTE; conditions: Table 3
T2 construct: purchased Invitrogen
T2 sequence (P23443 whole entry): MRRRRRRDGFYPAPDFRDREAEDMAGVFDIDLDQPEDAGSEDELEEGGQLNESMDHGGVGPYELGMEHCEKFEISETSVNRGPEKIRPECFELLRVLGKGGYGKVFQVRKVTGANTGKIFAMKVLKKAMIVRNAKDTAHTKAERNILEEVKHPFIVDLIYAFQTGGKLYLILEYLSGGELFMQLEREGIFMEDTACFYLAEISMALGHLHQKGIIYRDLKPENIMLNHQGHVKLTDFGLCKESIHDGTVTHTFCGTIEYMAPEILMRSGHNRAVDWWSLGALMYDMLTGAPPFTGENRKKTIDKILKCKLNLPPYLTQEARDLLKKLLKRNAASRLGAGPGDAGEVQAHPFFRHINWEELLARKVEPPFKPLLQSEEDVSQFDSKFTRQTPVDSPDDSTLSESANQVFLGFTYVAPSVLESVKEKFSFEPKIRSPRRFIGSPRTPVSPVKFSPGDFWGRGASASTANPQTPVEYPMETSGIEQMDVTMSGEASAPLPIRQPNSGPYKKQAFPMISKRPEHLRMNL
Description: as §1, §2

GRK6 = biological target: T3, GRK6 (Homo sapiens, UniProt P43250); assay: Further kinase screen, Invitrogen Z'-LYTE; conditions: Table 3
T3 construct: purchased Invitrogen
T3 sequence (P43250 whole entry): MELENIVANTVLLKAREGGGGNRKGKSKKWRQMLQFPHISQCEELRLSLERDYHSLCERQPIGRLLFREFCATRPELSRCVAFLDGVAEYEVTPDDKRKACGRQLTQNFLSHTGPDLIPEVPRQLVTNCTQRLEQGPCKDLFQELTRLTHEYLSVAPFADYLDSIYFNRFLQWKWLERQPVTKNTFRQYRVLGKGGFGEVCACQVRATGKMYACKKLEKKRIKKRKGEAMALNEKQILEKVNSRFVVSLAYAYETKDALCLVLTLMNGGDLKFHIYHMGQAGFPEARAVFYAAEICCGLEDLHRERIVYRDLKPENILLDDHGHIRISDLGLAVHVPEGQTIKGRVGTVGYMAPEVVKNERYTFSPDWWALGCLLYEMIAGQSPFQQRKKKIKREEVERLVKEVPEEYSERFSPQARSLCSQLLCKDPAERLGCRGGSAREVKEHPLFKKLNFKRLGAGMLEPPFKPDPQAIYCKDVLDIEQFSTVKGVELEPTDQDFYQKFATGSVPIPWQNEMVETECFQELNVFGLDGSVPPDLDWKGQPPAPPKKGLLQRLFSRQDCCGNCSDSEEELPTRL
Description: as §1, §2

RPS6KA5 (MSK1) = biological target: T4, RPS6KA5 (MSK1) (Homo sapiens, UniProt O75582); assay: Further kinase screen, Invitrogen Z'-LYTE; conditions: Table 3
T4 construct: purchased Invitrogen
T4 sequence (O75582 whole entry): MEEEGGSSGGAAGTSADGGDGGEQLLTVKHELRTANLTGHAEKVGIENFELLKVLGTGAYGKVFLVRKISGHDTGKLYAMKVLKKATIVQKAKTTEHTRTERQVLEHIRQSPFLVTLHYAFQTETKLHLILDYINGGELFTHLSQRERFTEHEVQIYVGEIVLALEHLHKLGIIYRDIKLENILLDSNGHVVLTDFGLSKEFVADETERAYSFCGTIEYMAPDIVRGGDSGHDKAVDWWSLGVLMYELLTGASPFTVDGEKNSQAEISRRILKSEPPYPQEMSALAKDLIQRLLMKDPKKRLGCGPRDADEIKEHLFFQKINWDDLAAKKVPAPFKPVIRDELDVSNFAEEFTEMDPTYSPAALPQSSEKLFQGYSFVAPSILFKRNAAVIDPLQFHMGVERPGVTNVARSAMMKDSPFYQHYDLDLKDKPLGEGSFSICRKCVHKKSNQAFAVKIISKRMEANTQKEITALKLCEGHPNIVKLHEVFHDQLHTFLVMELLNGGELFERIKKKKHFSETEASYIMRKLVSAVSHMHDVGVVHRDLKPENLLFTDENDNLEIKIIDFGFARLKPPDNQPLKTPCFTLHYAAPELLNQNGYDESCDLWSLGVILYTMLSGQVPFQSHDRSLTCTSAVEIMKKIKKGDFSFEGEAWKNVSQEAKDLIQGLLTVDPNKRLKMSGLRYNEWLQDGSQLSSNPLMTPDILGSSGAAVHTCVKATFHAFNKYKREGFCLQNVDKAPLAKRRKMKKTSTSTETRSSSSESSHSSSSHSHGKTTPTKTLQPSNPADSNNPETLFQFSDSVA
Description: as §1, §2

CAMK4 (CaMKIV) = biological target: T5, CAMK4 (CaMKIV) (Homo sapiens, UniProt Q16566); assay: Further kinase screen, Invitrogen Z'-LYTE; conditions: Table 3
T5 construct: purchased Invitrogen
Description: as §1, §2

CAMK2A (CaMKII alpha) = biological target: T6, CAMK2A (CaMKII alpha) (Homo sapiens, UniProt Q9UQM7); assay: Further kinase screen, Invitrogen Z'-LYTE; conditions: Table 3
T6 construct: purchased Invitrogen
Description: as §1, §2

TYK2 = biological target: T7, TYK2 (Homo sapiens, UniProt P29597); assay: Further kinase screen, Invitrogen Z'-LYTE; conditions: Table 3
T7 construct: purchased Invitrogen
T7 sequence (P29597 whole entry): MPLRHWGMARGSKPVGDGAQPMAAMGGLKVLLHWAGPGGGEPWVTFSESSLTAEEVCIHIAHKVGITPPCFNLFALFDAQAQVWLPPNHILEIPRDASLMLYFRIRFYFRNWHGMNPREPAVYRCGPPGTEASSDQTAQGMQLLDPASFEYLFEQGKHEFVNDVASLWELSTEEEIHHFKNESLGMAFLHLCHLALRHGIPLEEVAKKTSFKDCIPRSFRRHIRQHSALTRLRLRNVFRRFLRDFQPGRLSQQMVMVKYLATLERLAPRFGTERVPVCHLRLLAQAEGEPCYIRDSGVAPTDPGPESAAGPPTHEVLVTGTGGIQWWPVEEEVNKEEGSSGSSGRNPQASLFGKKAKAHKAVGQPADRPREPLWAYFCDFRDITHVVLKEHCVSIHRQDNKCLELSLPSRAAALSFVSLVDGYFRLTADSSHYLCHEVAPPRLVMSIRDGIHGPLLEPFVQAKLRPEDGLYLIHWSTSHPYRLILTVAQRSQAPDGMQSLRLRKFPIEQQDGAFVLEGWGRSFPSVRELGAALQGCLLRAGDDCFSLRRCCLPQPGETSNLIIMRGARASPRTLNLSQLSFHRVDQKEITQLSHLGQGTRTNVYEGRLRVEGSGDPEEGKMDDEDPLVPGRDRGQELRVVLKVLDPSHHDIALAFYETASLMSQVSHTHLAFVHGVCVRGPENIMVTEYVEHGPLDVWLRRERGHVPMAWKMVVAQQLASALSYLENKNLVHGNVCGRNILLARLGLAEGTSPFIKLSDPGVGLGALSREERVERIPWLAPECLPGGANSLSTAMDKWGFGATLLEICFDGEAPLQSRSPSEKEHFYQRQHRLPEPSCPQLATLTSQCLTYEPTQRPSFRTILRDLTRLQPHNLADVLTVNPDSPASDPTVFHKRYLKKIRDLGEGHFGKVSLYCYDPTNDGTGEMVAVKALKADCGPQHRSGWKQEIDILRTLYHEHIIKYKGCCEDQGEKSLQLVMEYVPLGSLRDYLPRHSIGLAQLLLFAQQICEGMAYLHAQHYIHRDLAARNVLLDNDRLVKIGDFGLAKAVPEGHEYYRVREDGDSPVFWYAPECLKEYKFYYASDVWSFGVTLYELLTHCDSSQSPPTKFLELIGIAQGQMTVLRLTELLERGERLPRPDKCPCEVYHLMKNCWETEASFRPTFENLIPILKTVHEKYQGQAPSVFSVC
Description: as §1, §2

SRPK1 = biological target: T8, SRPK1 (Homo sapiens, UniProt Q96SB4); assay: Further kinase screen, Invitrogen Z'-LYTE; conditions: Table 3
T8 construct: purchased Invitrogen
T8 sequence (Q96SB4 whole entry): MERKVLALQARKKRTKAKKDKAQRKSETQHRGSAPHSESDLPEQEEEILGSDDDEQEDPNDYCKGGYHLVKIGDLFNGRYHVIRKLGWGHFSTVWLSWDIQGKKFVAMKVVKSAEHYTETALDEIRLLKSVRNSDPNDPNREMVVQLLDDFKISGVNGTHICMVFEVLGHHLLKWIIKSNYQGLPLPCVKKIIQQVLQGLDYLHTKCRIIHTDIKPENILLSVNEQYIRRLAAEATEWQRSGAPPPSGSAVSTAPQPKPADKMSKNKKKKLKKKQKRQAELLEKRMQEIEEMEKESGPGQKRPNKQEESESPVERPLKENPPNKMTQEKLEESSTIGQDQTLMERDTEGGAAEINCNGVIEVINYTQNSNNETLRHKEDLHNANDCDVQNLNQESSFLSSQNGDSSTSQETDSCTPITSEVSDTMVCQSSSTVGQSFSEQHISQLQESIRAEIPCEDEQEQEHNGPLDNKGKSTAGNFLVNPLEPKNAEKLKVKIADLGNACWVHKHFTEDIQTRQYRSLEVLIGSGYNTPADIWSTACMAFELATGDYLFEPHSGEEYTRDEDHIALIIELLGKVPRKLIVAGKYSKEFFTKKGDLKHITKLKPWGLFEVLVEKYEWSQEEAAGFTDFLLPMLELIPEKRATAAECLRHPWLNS
Description: as §1, §2

MAPKAPK2 = biological target: T9, MAPKAPK2 (Homo sapiens, UniProt P49137); assay: Further kinase screen, Invitrogen Z'-LYTE; conditions: Table 3
T9 construct: purchased Invitrogen
T9 sequence (P49137 whole entry): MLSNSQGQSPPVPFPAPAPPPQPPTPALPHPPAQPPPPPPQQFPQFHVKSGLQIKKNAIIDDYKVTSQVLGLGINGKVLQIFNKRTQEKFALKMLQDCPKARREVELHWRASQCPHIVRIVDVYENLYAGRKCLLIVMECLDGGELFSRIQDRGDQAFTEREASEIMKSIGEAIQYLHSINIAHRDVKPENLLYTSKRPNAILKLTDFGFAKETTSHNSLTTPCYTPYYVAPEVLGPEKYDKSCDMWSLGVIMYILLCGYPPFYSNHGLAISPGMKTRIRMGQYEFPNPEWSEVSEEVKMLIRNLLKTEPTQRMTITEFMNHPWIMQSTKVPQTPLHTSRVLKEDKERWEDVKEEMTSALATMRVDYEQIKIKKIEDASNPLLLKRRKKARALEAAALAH
Description: as §1, §2

OGT = biological target: T10, OGT (Homo sapiens, UniProt O15294); assay: IC50 assay, OGT peptide-capture assay
T10 construct: hOGT4.5 construct (spanning residues 313-1031 based on the numbering of the full length human protein); made in house
T10 sequence (O15294 313-1031 isoform O15294-3): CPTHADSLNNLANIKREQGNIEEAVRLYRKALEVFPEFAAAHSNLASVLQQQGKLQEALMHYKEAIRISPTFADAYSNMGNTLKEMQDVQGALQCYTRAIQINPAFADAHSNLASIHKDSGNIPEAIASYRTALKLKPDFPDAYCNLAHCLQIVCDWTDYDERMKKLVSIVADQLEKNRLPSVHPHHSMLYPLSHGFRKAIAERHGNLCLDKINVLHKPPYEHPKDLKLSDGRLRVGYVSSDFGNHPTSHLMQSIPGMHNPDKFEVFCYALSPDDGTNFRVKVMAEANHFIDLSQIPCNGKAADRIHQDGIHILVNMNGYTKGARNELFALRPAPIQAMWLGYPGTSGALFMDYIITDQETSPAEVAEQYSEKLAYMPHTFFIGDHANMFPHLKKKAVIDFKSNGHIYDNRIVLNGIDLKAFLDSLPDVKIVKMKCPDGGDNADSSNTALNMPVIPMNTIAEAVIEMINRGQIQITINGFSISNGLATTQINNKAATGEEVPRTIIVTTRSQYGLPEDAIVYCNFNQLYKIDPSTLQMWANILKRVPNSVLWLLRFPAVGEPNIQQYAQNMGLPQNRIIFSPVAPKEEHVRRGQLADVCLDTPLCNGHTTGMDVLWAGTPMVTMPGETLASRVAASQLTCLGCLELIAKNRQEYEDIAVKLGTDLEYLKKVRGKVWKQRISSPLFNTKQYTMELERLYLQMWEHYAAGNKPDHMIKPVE
Description: IC50 Assay of Thiocarbamate to OGT.
Enzyme activity was tested with the peptide-capture assay in the presence of different concentrations of each compound as previously reported (J. Am. Chem. Soc. 2005, 127, 14588-14589).

ADRBK1 (GRK2) = biological target: T11, ADRBK1 (GRK2) (Homo sapiens, UniProt P25098); assay: Kinase profiling, Invitrogen Z'-LYTE
T11 construct: purchased Invitrogen
T11 sequence (P25098 1-689): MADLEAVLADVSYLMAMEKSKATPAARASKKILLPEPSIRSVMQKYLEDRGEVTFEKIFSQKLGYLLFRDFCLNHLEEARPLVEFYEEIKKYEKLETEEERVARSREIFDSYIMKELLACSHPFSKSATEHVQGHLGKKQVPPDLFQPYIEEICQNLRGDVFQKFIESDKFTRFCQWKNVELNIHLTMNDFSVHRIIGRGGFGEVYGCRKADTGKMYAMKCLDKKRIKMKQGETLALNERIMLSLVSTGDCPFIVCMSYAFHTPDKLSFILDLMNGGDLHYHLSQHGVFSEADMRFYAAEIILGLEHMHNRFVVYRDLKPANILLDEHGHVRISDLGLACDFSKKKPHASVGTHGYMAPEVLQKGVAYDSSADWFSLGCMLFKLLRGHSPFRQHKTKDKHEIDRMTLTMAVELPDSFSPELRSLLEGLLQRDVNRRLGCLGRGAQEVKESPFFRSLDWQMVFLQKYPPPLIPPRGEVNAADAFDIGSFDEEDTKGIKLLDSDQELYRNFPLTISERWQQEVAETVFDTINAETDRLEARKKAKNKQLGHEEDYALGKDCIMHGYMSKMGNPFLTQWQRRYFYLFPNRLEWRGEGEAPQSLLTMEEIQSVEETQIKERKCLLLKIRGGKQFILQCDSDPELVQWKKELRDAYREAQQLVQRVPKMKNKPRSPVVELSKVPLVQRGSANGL
Description: as §1, §2

PLK1 = biological target: T12, PLK1 (Homo sapiens, UniProt P53350); assay: Kinase profiling, Invitrogen Z'-LYTE; conditions: for inhibition at 5 µM / % Inhibition Point 1 / % Inhibition Point 2 / % Inhibition mean: PLK1; for inhibition at 5 µM: Table 2; for % Inhibition Point 1 / % Inhibition Point 2 / % Inhibition mean: Table 3 further screen
T12 construct: purchased Invitrogen
T12 sequence (P53350 whole entry): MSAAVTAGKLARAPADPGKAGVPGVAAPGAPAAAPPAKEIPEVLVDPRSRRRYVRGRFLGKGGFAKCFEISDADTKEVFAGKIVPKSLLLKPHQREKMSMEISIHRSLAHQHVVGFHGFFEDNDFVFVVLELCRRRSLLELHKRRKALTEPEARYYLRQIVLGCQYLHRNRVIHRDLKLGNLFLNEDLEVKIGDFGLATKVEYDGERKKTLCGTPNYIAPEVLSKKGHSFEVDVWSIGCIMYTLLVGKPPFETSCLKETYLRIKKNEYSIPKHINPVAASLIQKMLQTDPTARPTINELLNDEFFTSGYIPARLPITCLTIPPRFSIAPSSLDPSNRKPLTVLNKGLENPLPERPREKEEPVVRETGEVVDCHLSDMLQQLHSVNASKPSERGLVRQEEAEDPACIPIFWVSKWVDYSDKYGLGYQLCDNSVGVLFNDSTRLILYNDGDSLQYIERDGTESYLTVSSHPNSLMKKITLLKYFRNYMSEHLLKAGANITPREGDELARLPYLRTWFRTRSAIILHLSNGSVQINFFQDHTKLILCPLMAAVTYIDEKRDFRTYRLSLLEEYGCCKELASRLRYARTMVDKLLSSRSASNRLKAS
Description: as §1, §2

[1] = peptide-capture assay, different concentrations of each compound, read-out: IC50 Values

Compound: COc1ccc(OC(=O)n2c(=O)oc3cc(C(C)=O)ccc32)cc1 [Compound 2]
- % Inhibition Point 1 (CDK2/cyclin A): −297%
- % Inhibition Point 2 (CDK2/cyclin A): −301%
- % Inhibition mean (CDK2/cyclin A): −299%
- % Inhibition Point 1 (RPS6KB1 (p70S6K)): −138%
- % Inhibition Point 2 (RPS6KB1 (p70S6K)): −122%
- % Inhibition mean (RPS6KB1 (p70S6K)): −130%
- % Inhibition Point 1 (GRK6): 14%
- % Inhibition Point 2 (GRK6): 17%
- % Inhibition mean (GRK6): 16%
- % Inhibition Point 1 (RPS6KA5 (MSK1)): −215%
- % Inhibition Point 2 (RPS6KA5 (MSK1)): −231%
- % Inhibition mean (RPS6KA5 (MSK1)): −223%
- % Inhibition Point 1 (CAMK4 (CaMKIV)): −159%
- % Inhibition Point 2 (CAMK4 (CaMKIV)): −201%
- % Inhibition mean (CAMK4 (CaMKIV)): −180%
- % Inhibition Point 1 (CAMK2A (CaMKII alpha)): −14%
- % Inhibition Point 2 (CAMK2A (CaMKII alpha)): −10%
- % Inhibition mean (CAMK2A (CaMKII alpha)): −12%
- % Inhibition Point 1 (TYK2): −98%
- % Inhibition Point 2 (TYK2): −99%
- % Inhibition mean (TYK2): −99%
- % Inhibition Point 1 (SRPK1): −49%
- % Inhibition Point 2 (SRPK1): −38%
- % Inhibition mean (SRPK1): −44%
- % Inhibition Point 1 (MAPKAPK2): 0%
- % Inhibition Point 2 (MAPKAPK2): −10%
- % Inhibition mean (MAPKAPK2): −5%
- IC50 (OGT; [1]): 2 µM
- IC50 (OGT; read-out: apparent IC50): 1.6 ± 1.1 µM
- % Inhibition Point 1 (ADRBK1 (GRK2); Table 2): 2%
- % Inhibition Point 2 (ADRBK1 (GRK2); Table 2): 5%
- % Inhibition mean (ADRBK1 (GRK2); Table 2): 4%
- % Inhibition Point 1 (ADRBK1 (GRK2); Table 3 further screen): 4%
- % Inhibition Point 2 (ADRBK1 (GRK2); Table 3 further screen): 7%
- % Inhibition mean (ADRBK1 (GRK2); Table 3 further screen): 5%
- PLK1 inhibition (PLK1; 5 μM): completely
- inhibition at 5 µM (PLK1; 5 μM, read-out: % Inhibition Point 1): 104%
- inhibition at 5 µM (PLK1; 5 μM, read-out: % Inhibition Point 2): 104%
- inhibition at 5 µM (PLK1; 5 μM, read-out: % Inhibition mean): 104%
- % Inhibition Point 1 (PLK1): 101%
- % Inhibition Point 2 (PLK1): 101%
- % Inhibition mean (PLK1): 101%

Compound: COc1ccc(OC(=S)n2c(=O)oc3cc(C(C)=O)ccc32)cc1 [Compound 4A]
- % Inhibition Point 1 (CDK2/cyclin A): 9%
- % Inhibition Point 2 (CDK2/cyclin A): 9%
- % Inhibition mean (CDK2/cyclin A): 9%
- % Inhibition Point 1 (RPS6KB1 (p70S6K)): 19%
- % Inhibition Point 2 (RPS6KB1 (p70S6K)): 22%
- % Inhibition mean (RPS6KB1 (p70S6K)): 21%
- % Inhibition Point 1 (GRK6): 42%
- % Inhibition Point 2 (GRK6): 43%
- % Inhibition mean (GRK6): 42%
- % Inhibition Point 1 (RPS6KA5 (MSK1)): 35%
- % Inhibition Point 2 (RPS6KA5 (MSK1)): 32%
- % Inhibition mean (RPS6KA5 (MSK1)): 33%
- % Inhibition Point 1 (CAMK4 (CaMKIV)): 18%
- % Inhibition Point 2 (CAMK4 (CaMKIV)): 24%
- % Inhibition mean (CAMK4 (CaMKIV)): 21%
- % Inhibition Point 1 (CAMK2A (CaMKII alpha)): 20%
- % Inhibition Point 2 (CAMK2A (CaMKII alpha)): 24%
- % Inhibition mean (CAMK2A (CaMKII alpha)): 22%
- % Inhibition Point 1 (TYK2): 7%
- % Inhibition Point 2 (TYK2): 11%
- % Inhibition mean (TYK2): 9%
- % Inhibition Point 1 (SRPK1): −6%
- % Inhibition Point 2 (SRPK1): 2%
- % Inhibition mean (SRPK1): −2%
- % Inhibition Point 1 (MAPKAPK2): 48%
- % Inhibition Point 2 (MAPKAPK2): 53%
- % Inhibition mean (MAPKAPK2): 51%
- IC50 (OGT; [1]): 14 µM
- % Inhibition Point 1 (ADRBK1 (GRK2); Table 3 further screen): 3%
- % Inhibition Point 2 (ADRBK1 (GRK2); Table 3 further screen): 7%
- % Inhibition mean (ADRBK1 (GRK2); Table 3 further screen): 5%
- % Inhibition Point 1 (PLK1): 70%
- % Inhibition Point 2 (PLK1): 65%
- % Inhibition mean (PLK1): 68%

Compound: COc1ccc(OC(=O)n2c(=S)oc3cc(C(C)=O)ccc32)cc1 [Compound 4B]
- % Inhibition Point 1 (CDK2/cyclin A): −2%
- % Inhibition Point 2 (CDK2/cyclin A): 4%
- % Inhibition mean (CDK2/cyclin A): 1%
- % Inhibition Point 1 (RPS6KB1 (p70S6K)): 35%
- % Inhibition Point 2 (RPS6KB1 (p70S6K)): 44%
- % Inhibition mean (RPS6KB1 (p70S6K)): 40%
- % Inhibition Point 1 (GRK6): 71%
- % Inhibition Point 2 (GRK6): 71%
- % Inhibition mean (GRK6): 71%
- % Inhibition Point 1 (RPS6KA5 (MSK1)): 49%
- % Inhibition Point 2 (RPS6KA5 (MSK1)): 48%
- % Inhibition mean (RPS6KA5 (MSK1)): 49%
- % Inhibition Point 1 (CAMK4 (CaMKIV)): 52%
- % Inhibition Point 2 (CAMK4 (CaMKIV)): 46%
- % Inhibition mean (CAMK4 (CaMKIV)): 49%
- % Inhibition Point 1 (CAMK2A (CaMKII alpha)): 57%
- % Inhibition Point 2 (CAMK2A (CaMKII alpha)): 55%
- % Inhibition mean (CAMK2A (CaMKII alpha)): 56%
- % Inhibition Point 1 (TYK2): 17%
- % Inhibition Point 2 (TYK2): 21%
- % Inhibition mean (TYK2): 19%
- % Inhibition Point 1 (SRPK1): 0%
- % Inhibition Point 2 (SRPK1): 2%
- % Inhibition mean (SRPK1): 1%
- % Inhibition Point 1 (MAPKAPK2): 90%
- % Inhibition Point 2 (MAPKAPK2): 90%
- % Inhibition mean (MAPKAPK2): 90%
- IC50 (OGT; [1]): ~100 µM
- % Inhibition Point 1 (ADRBK1 (GRK2); Table 3 further screen): 7%
- % Inhibition Point 2 (ADRBK1 (GRK2); Table 3 further screen): 6%
- % Inhibition mean (ADRBK1 (GRK2); Table 3 further screen): 7%
- % Inhibition Point 1 (PLK1): 98%
- % Inhibition Point 2 (PLK1): 101%
- % Inhibition mean (PLK1): 100%
